Results reported in article PMC6677754, “In silico design and optimization of selective membranolytic anticancer peptides” (Scientific Reports, 2019).
Peptide text beside a SMILES is read from it.

Columns and labels:
[1] = test system: noncancer HDMEC primary cells (human dermal microvascular endothelial cells); test: Cell viability assay (MTT); assay type: cell-based; details: Table S2; noncancer primary cells; MTT, 24 h; mean ± sd; N = 2 independent measurements with six technical replicates each (Figs S6-S8)
Method: (§1) 10% fetal bovine serum and 1% penicillin-streptomycin (Thermo Fisher Scientific, Waltham, MA, USA). The cultures were kept at 37°C in a 5% CO2 atmosphere incubator (Thermo Fisher Scientific, Waltham, MA, USA) and split every two to three days to new culture flasks. Cells no older than 20 passages were used for experiments.
(§2) For splitting, the cell culture media was aspirated, the cells were washed with 0.01 M phosphate buffered saline (PBS, Gibco, Thermo Fisher Scientific, Waltham, MA, USA) and trypsin-EDTA (trypsin - ethylene diamine tetraacetic acid, Fisher scientific, UK) was added to the cell layer to detach them from the flask surface. After incubation for 2 min at 37°C, cells were resuspended with an equal volume of DMEM media and centrifuged at 310 g for 5 min at 4°C. After removal of the supernatant the cells were resuspended in DMEM cell media and split into new cell culture flasks at a 1/3 to 1/5 ratio.
(§3) Determination of the anticancer peptides half effective concentration (EC50) was performed by a 3-(4,5-dimethylthiazol-2-yl)-2,5-diphenyltetrazolium bromide (MTT) assay, as described elsewhere21. Briefly, […] were seeded in each well of a 96-well plate and left to adhere and […]
(§4) sulfoxide (DMSO, Fisher Scientific, UK) at an intermediate concentration of 1 mM. The peptides were then diluted in a 2-fold dilution series starting at 100 μM with DMEM culture media. Cells were incubated with the peptide solutions for 24 h. After this time, the cell media was removed and the cells were incubated for 1 h with a 0.5 mg mL−1 MTT solution to allow enough time for formazan crystal formation (Sigma Aldrich, Steinheim, Germany). The supernatant was removed and 100 μL of DMSO were added into each well to resuspend the formazan crystals.
(§5) After manually shaking the plates to completely dissolve the crystals, the absorbance was measured at 540 nm in a Tecan Infinity M1000 spectrophotometer. The cell viability was determined based on the quantification of the color intensity in each culture well, considering the absorbance obtained by the control media without peptides as a 100% survival. The resultant sigmoidal curves were analyzed with the drc22 R package using a log-logistic model

[2] = test system: MCF7 breast adenocarcinoma cell line; test: Cell viability assay (MTT); assay type: cell-based, human; details: Table S2, 24 h, mean ± sd, N = 2 independent measurements with six technical replicates each (Figs S6-S8)
Method: as §1, §2, §3, §4, §5

[3] = test system: A549 lung adenocarcinoma cell line; test: Cell viability assay (MTT); assay type: cell-based, human; details: Table S2; MTT, 24 h; mean ± sd; N = 2 independent measurements with six technical replicates each (Figs S6-S8); read-out: A549 EC50 /µM
Method: as §1, §2, §3, §4, §5

[4] = test system: human erythrocytes; test: Hemolysis assay; assay type: cell-based; details: red cells of human, 1 h
Method: Human erythrocytes were freshly ordered at the Blutspende Zürich. Erythrocytes were washed 3 times with a […] phosphate buffered saline (PBS, Gibco, Thermo Fisher Scientific, Waltham, MA, USA) solution centrifuging at 800 g for 10 min or until the supernatant appeared clear to remove the blood plasma. A 5% v/v erythrocytes : PBS solution was prepared for direct use. For HC50 determination, peptides were dissolved in PBS at an intermediate concentration of 1 mM. A dilution series of the peptide from 200 to 6.25 μM was plated in a round-bottomed 96-well plate in triplicates, with a volume of 50 μL per well. PBS buffer and a solution of 0.1% Triton-X-100 (Fisher Chemical, Loughborough, UK) in PBS were employed as negative and positive controls, respectively. 50 μL of the 5% erythrocyte solution were added in each well and the plates were incubated at 37°C for 1 h. After this time, 100 μL PBS were added to each well and plates were centrifuged at 800 g for 10 min. 100 μL of the supernatant were transferred to a flat-bottomed 96-well plate and the absorbance was measured at 540 nm in a Tecan Infinity M1000 spectrophotometer plate reader. The hemolysis percentage was calculated, considering the absorbance values of the Triton and PBS wells as 100% and 0% hemolysis, respectively.
The resultant sigmoidal curves were analyzed with the drc22 R package using a log-logistic model with 3 fixed parameters to obtain the HC50 values. […]
NCI-60 screening procedure […]
Each peptide was tested in a 5-concentration assay, starting at 10^-4 M and diluting 10-fold to the lowest 10^-8 M concentration. The peptides were incubated for 48 h and the cell concentration was assayed by using the sulforhodamine B assay25 and optical density measurements. The growth inhibition (GI50) value24, measures the growth inhibitory power of the drug agent. The GI50 value is the concentration of the test drug for which the condition in Eq. S1 is met, where T is the optical density of the test well after a 48-h exposure to the peptide, T0 the optical density before applying the peptide drug and C the control optical density of a well where no peptide was applied.

SMILES | EC50 [1] [µM] | EC50 [2] [µM] | EC50 [3] [µM] | Eryhtr. HC50 /µM [4] [µM]
CC[C@H](C)[C@H](NC(=O)[C@@H](N)CCCCN)C(=O)N[C@@H](Cc1ccccc1)C(=O)N[C@@H](CCCCN)C(=O)N[C@@H](CCCCN)C(=O)N[C@@H](Cc1ccccc1)C(=O)N[C@@H](CCCCN)C(=O)N[C@@H](CC(=O)O)C(=O)N[C@@H](Cc1c[nH]c2ccccc12)C(=O)N[C@@H](Cc1ccccc1)C(=O)N[C@@H](CCCCN)C(=O)N[C@@H](CCCCN)C(=O)N[C@@H](C)C(=O)N[C@@H](Cc1ccccc1)C(=O)N[C@@H](Cc1c[nH]cn1)C(=O)N[C@H](C(=O)N[C@@H](CC(C)C)C(=O)NCC(=O)N[C@@H](CCCCN)C(=O)N[C@H](C(N)=O)C(C)C)C(C)C [Off2.5] (H-KIFKKFKDWFKKAFHVLGKV-NH2) | 22 ± 1 | 10.4 ± 0.8 | 14.8 ± 0.7 | > 100
CC(C)C[C@H](NC(=O)[C@H](Cc1c[nH]cn1)NC(=O)[C@H](Cc1c[nH]c2ccccc12)NC(=O)[C@H](C)NC(=O)[C@H](CCCCN)NC(=O)[C@H](CCCNC(=N)N)NC(=O)[C@H](Cc1ccc(O)cc1)NC(=O)[C@H](Cc1c[nH]c2ccccc12)NC(=O)[C@@H](NC(=O)[C@H](CCCNC(=N)N)NC(=O)[C@@H](NC(=O)[C@H](CCCCN)NC(=O)[C@H](CCCCN)NC(=O)[C@H](CC(C)C)NC(=O)[C@H](CC(C)C)NC(=O)[C@@H](N)CCC(N)=O)C(C)C)[C@@H](C)O)C(=O)N[C@@H](Cc1ccc(O)cc1)C(=O)NCC(=O)N[C@@H](CCCCN)C(=O)N[C@H](C(N)=O)C(C)C [Off2.2.5] (H-QLLKKVRTWYRKAWHLYGKV-NH2) | 27.2 ± 0.5 | 16 ± 2 | 29.3 ± 0.9 | > 200
CC[C@H](C)[C@H](NC(=O)[C@H](CC(C)C)NC(=O)[C@@H](N)Cc1c[nH]cn1)C(=O)N[C@@H](Cc1c[nH]cn1)C(=O)N[C@@H](CCCNC(=N)N)C(=O)N[C@@H](CC(C)C)C(=O)N[C@@H](Cc1c[nH]cn1)C(=O)N[C@H](C(=O)N[C@@H](Cc1ccc(O)cc1)C(=O)N[C@@H](Cc1c[nH]c2ccccc12)C(=O)N[C@@H](Cc1c[nH]cn1)C(=O)N[C@@H](CCCCN)C(=O)N1CCC[C@H]1C(=O)N[C@@H](Cc1c[nH]c2ccccc12)C(=O)N[C@@H](Cc1c[nH]cn1)C(=O)N[C@@H](Cc1ccc(O)cc1)C(=O)N[C@@H](CC(C)C)C(=O)NCC(=O)N[C@@H](CCCCN)C(=O)N[C@@H](CC(C)C)C(N)=O)[C@@H](C)O [Off2.9] (H-HLIHRLHTYWHKPWHYLGKL-NH2) | 135 ± 2 | > 100 | > 100 | > 200
CC[C@H](C)[C@H](NC(=O)[C@H](Cc1c[nH]cn1)NC(=O)[C@H](Cc1c[nH]c2ccccc12)NC(=O)[C@H](C)NC(=O)[C@H](CCCNC(=N)N)NC(=O)[C@H](CCCNC(=N)N)NC(=O)[C@H](CC(C)C)NC(=O)[C@H](Cc1c[nH]c2ccccc12)NC(=O)[C@@H](NC(=O)[C@H](CCCNC(=N)N)NC(=O)[C@@H](NC(=O)[C@H](CCCNC(=N)N)NC(=O)[C@H](CCCNC(=N)N)NC(=O)[C@H](CC(C)C)NC(=O)[C@H](Cc1ccc(O)cc1)NC(=O)[C@@H](N)CCC(N)=O)C(C)C)[C@@H](C)O)C(=O)N[C@@H](CC(C)C)C(=O)NCC(=O)N[C@@H](CCCCN)C(=O)N[C@H](C(N)=O)C(C)C [Off2.2.8] (H-QYLRRVRTWLRRAWHILGKV-NH2) | 10.3 ± 0.3 | 11 ± 0.2 | 16.5 ± 0.2 | 21 ± 1
CC[C@H](C)[C@H](NC(=O)[C@@H](N)CCC(N)=O)C(=O)N[C@@H](Cc1ccc(O)cc1)C(=O)N[C@@H](CCCCN)C(=O)N[C@@H](CCCCN)C(=O)N[C@@H](Cc1ccc(O)cc1)C(=O)N[C@@H](CCCNC(=N)N)C(=O)N[C@H](C(=O)N[C@@H](Cc1c[nH]c2ccccc12)C(=O)N[C@@H](Cc1ccc(O)cc1)C(=O)N[C@@H](CCCNC(=N)N)C(=O)N[C@@H](CCCCN)C(=O)N[C@@H](C)C(=O)N[C@@H](Cc1c[nH]c2ccccc12)C(=O)N[C@@H](CCCCN)C(=O)N[C@H](C(=O)N[C@@H](CC(C)C)C(=O)NCC(=O)N[C@@H](CCCCN)C(=O)N[C@H](C(N)=O)C(C)C)C(C)C)[C@@H](C)O [Off2.2.10] (H-QIYKKYRTWYRKAWKVLGKV-NH2) | 71 ± 12 | 16.9 ± 0.8 | 36 ± 7 | > 200
CC[C@H](C)[C@H](NC(=O)[C@H](CC(C)C)NC(=O)[C@H](CCCCN)NC(=O)[C@H](Cc1ccccc1)NC(=O)[C@@H](NC(=O)[C@H](CCCCN)NC(=O)[C@H](CCCCN)NC(=O)[C@H](Cc1ccccc1)NC(=O)[C@H](Cc1c[nH]c2ccccc12)NC(=O)[C@@H](NC(=O)[C@H](CCCCN)NC(=O)[C@H](CC(C)C)NC(=O)[C@H](Cc1c[nH]cn1)NC(=O)[C@H](CCCNC(=N)N)NC(=O)[C@@H](NC(=O)[C@H](Cc1ccc(O)cc1)NC(=O)[C@@H](N)CCCCN)[C@@H](C)CC)[C@@H](C)O)C(C)C)C(=O)NCC(=O)N[C@@H](CCC(=O)O)C(=O)N[C@H](C(N)=O)C(C)C [Off4] (H-KYIRHLKTWFKKVFKLIGEV-NH2) | 7.1 ± 0.1 | 11 ± 2 | 15 ± 0.1 | 20 ± 3
CC[C@H](C)[C@H](NC(=O)[C@H](CCCCN)NC(=O)[C@H](CCCCN)NC(=O)[C@H](CC(C)C)NC(=O)[C@H](Cc1ccccc1)NC(=O)[C@H](CC(=O)O)NC(=O)[C@H](CCCCN)NC(=O)[C@H](Cc1ccccc1)NC(=O)[C@H](CCCCN)NC(=O)[C@H](CCCCN)NC(=O)[C@H](Cc1ccccc1)NC(=O)[C@@H](NC(=O)[C@@H](N)CCCCN)[C@@H](C)CC)C(=O)N[C@@H](Cc1ccccc1)C(=O)N[C@@H](CCC(N)=O)C(=O)N[C@@H](Cc1ccc(O)cc1)C(=O)N[C@@H](CC(C)C)C(=O)NCC(=O)N[C@@H](CCCCN)C(=O)N[C@H](C(N)=O)C(C)C [Off5] (H-KIFKKFKDFLKKIFQYLGKV-NH2) | 10.1 ± 0.2 | 12.4 ± 0.4 | 17.4 ± 0.1 | 15 ± 2
CC[C@H](C)[C@H](NC(=O)[C@@H]1CCCN1C(=O)[C@H](Cc1c[nH]cn1)NC(=O)[C@H](Cc1ccccc1)NC(=O)[C@H](CCCCN)NC(=O)[C@H](CCCCN)NC(=O)[C@H](Cc1ccccc1)NC(=O)[C@@H](NC(=O)[C@@H](N)CCCNC(=N)N)C(C)C)C(=O)N[C@@H](Cc1ccc(O)cc1)C(=O)N[C@@H](Cc1c[nH]cn1)C(=O)N[C@@H](CCCNC(=N)N)C(=O)N[C@H](C(=O)N[C@@H](Cc1c[nH]c2ccccc12)C(=O)N[C@@H](CCCNC(=N)N)C(=O)N[C@@H](CC(C)C)C(=O)N[C@@H](Cc1c[nH]c2ccccc12)C(=O)NCC(=O)N[C@@H](Cc1c[nH]cn1)C(=O)N[C@@H](CC(C)C)C(N)=O)C(C)C [Off1] (H-RVFKKFHPIYHRVWRLWGHL-NH2) | 56 ± 7 | 27.4 ± 0.5 | 49 ± 2 | > 200
